Patent publication US7169756B2, “Streptogramin antibiotics” (priority 2005, dated 2007)
In brackets after ≈: the same amount, converted by molar mass. Where two headings read alike, the source gives them in different places. Numbered stars: 1 amine (or outer) side, 2 acyl side, 3 side chain; on linkers, the order of the positions; unused ones are H or OH. Bridge positions count the residues as written; N and C are the ends. Square brackets hold non-standard residues; d marks the D form. Peptide text beside a SMILES is read from it. * marks the point of attachment. X1 = O=C1C[C@@H](C(=O)[*:2])N([*:1])C[C@H]1CS[C@@H]1CN2CCC1CC2; NMePhe(4-NMe2) = CN[C@@H](Cc1ccc(N(C)C)cc1)C(=O)O; Picolinoyl(3-OH) = O=C(c1ncccc1O)*; Phg = N[C@H](C(=O)O)c1ccccc1; Orn = NCCC[C@H](N)C(=O)O; dAbu = CC[C@@H](N)C(=O)O; Dap = NC[C@H](N)C(=O)O

Experiments:
[1] = test system: Staphylococcus epidermidis (ATCC 14990); type: cell-based
Description: (§1) The antibiotic activity of the peptides synthesized in this study was initially assayed using a disk assay where samples were applied to sterile paper disks placed on a fresh lawn of bacterial culture on appropriate agar plates as required by the organism. These were then incubated for 16 hr at 37° C. and the zone of growth inhibition surrounding the disks recorded. For quantitative assessment of antibiotic activity in liquid culture, the minimal inhibitory concentration (MIC) of peptides was determined by serial dilution studies. The peptides and standard antibiotics were dissolved in DMSO and the final concentration of DMSO in the liquid cultures was 5%. Both S. aureus RN4220 and E. coli BAS901 were able to grow efficiently at this level of DMSO.
(§2) Crude material from the initial synthesis reactions was used to test the potential of the analogues as antibiotics in susceptibility assays where a solution of the compound was placed on a paper disk on a lawn of bacteria. As described above, E. coli BAS901 is deficient in the Imp/OstA protein, an outer membrane protein, involved in cell envelope biogenesis (1, 5). […] The antibiotic activity of the peptides synthesized in this study was initially assayed using a disk assay where samples were applied to sterile paper disks placed on a fresh lawn of bacterial culture on Tryptic Soya, Luria Broth, or Brain Heart Infusion Agar plates. These were then incubated for 16 hrs at 37° C. and the zone of growth inhibition surrounding the disks recorded.

[2] = test system: Enterococcus faecalis (ATCC 29212); type: cell-based
Description: as §1, §2

[3] = test system: Streptococcus pneumoniae (ATCC 6305); type: cell-based
Description: as §1, §2

[4] = test system: Staphylococcus epidermidis (ATCC 12228); type: cell-based
Description: as §1, §2

Haemophilus influenza = experiment: disk assay, zone of growth inhibition; type: cell-based, Haemophilus influenzae
Description: as §1
(§3) Crude material from the initial synthesis reactions was used to test the potential of the analogues as antibiotics in susceptibility assays where a solution of the compound was placed on a paper disk on a lawn of bacteria. As described above, E. coli BAS901 is deficient in the Imp/OstA protein, an outer membrane protein, involved in cell envelope biogenesis (1, 5). […] These were then incubated for 16 hrs at 37° C. and the zone of growth inhibition surrounding the disks recorded.

E. coli BAS901/pUCVgb [5] = experiment: disk assay, zone of growth inhibition; type: cell-based, Escherichia coli; conditions: Vgb constitutively expressed
Source text: (§4) A hyperpermeable E. coli strain, E. coli BAS901, harboring a plasmid constitutively expressing Vgb was created for in vivo studies. The plasmids pVGB, described previously in [14], and […] were digested with Xbal and BamHI, to yield an approximately 1 kb fragment containing a ribosomal binding site upstream of vgb, and linearized pUC19 backbone, respectively. The vgb fragment was then subcloned into the linearized pUC19 backbone downstream of pLac yielding pUC19-VGB. Both pUC19-VGB and pUC19 were transformed E. coli BAS901.
as §1, §2

E. coli BAS901/pUC19 = experiment: microbe, parasite or virus in culture; type: cell-based, Escherichia coli
Source text: as §4, §1

E. coli BAS901/pUCVgb [6] = experiment: microbe, parasite or virus in culture; type: cell-based, Escherichia coli
Source text: as §4, §1

in vitro translation = experiment: In Vitro Translation Assay; type: biochemical; conditions: FIG. 6
Description: Inhibition of translation was monitored using an ActivePro In Vitro Translation Kit from Ambion. Briefly, a reaction mixture was prepared as per the manufacturer's instructions that contained all of the constituents necessary (including [^35S]-methionine) except for DNA template. These mixtures were then preincubated for 15 min at room temperature in the presence or absence of various antibiotics. Subsequent to the preincubation period, a control template containing a chloramphenicol acetyltransferase gene under control of a bacteriophage T7 promoter was added and the reaction carried out for 1 hr at 37° C. Due to the insoluble nature of some of the antibiotics, the final DMSO concentration in each reaction including controls was maintained at 5% (v/v). Aliquots were taken after 1 hr, and separated on SDS polyacrylamide gels. The efficiency of translation of ^35S-labeled […] was analyzed and quantified using a Typhoon 9200 variable mode imager (Image-Quant 5.2 software).

[7] = test system: Salmonella enterica (ATCC 14028); experiment: disk assay, zone of growth inhibition; type: cell-based; conditions: serovar Typhimurium
Description: as §1, §2

[8] = test system: Enterococcus faecalis (ATCC 51299); experiment: disk assay, zone of growth inhibition; type: cell-based; conditions: vancomycin, aminoglycoside resistant
Description: as §1, §2

[9] = test system: Staphylococcus aureus (ATCC 25923); experiment: disk assay, zone of growth inhibition; type: cell-based
Description: as §1, §2

[10] = test system: Streptococcus pneumoniae (ATCC 49619); experiment: disk assay, zone of growth inhibition; type: cell-based
Description: as §1, §2

[11] = test system: Staphylococcus aureus (ATCC 49476); experiment: disk assay, zone of growth inhibition; type: cell-based
Description: as §1, §2

[12] = test system: Staphylococcus aureus (ATCC 43300); experiment: disk assay, zone of growth inhibition; type: cell-based; conditions: methicillin resistant, oxacillin resistant
Description: as §1, §2

[13] = test system: Staphylococcus aureus (ATCC 29213); experiment: disk assay, zone of growth inhibition; type: cell-based
Description: as §1, §2

E. coli ribosomes = conditions: fluorescence titration, purified intact E. coli ribosomes
B. subtilis 168 = type: cell-based, Bacillus subtilis
Description: as §1, §3

E. coli BAS901/pUC19ermB = experiment: microbe, parasite or virus in culture; type: cell-based, Escherichia coli
Source text: In order to test the effects of 5 against E. coli BAS901 harboring ermB, the 23S rRNA methyltransferase, the plasmid pJIM2246 ΩermB [13] was purified from Staphylococcus aureus RN4220/pJIM2246 ΩermB. ErmB was subsequently amplified from pJIM2246 ΩermB via polymerase chain reaction using primers 5′-[…] AND 5′-[…] (engineered restriction enzyme sites are underlined). The amplified product was subcloned into pCR4Blunt-TOPO (Invitrogen) and transformed into E. coli XL10 GOLD, resulting in ermB being positioned in frame with the lacZ gene. This construct, designated pTOPOerm, was then used as template in the reamplification of ermB using a new forward primer containing a strong ribosomal binding consensus sequence (shown in italics); 5-[…]. […]
as §1, with “The peptides and standard antibiotics were dissolved in DMSO and the final concentration of DMSO in the liquid cultures was 5%. Both S. aureus RN4220 and E. coli BAS901 were able to grow efficiently at this level of DMSO.” left out

[14] = E. coli BAS901/pUCVgb (expressing Vgb)

CC[C@H]1NC(=O)[C@@H](NC(=O)c2ncccc2O)[C@@H](C)OC(=O)[C@H](c2ccccc2)NC(=O)[C@@H]2CC(=O)[C@H](CS[C@@H]3CN4CCC3CC4)CN2C(=O)[C@H](Cc2ccc(N(C)C)cc2)N(C)C(=O)[C@@H]2CCCN2C1=O [Quinupristin, quinupristin, reference compound] ({Picolinoyl(3-OH)}-T[dAbu]P[NMePhe(4-NMe2)][X1][Phg]; ester 1-C)
Zone of Inhibition ([1]; Staphylococcus epidermidis (ATCC 14990), disk assay): 3.0 cm | Zone of Inhibition ([2]; Enterococcus faecalis (ATCC 29212), disk assay): 1.8 cm | Zone of Inhibition ([3]; Streptococcus pneumoniae (ATCC 6305), disk assay): 2.1 cm | Zone of Inhibition ([4]; Staphylococcus epidermidis (ATCC 12228), disk assay): 3.4 cm | Zone of Inhibition (Haemophilus influenza): n.i. | Zone of Inhibition (E. coli BAS901/pUCVgb [5]): n.i.^a | Zone of Inhibition (E. coli BAS901/pUCVgb [5]; listed as quinupristin): inactivated | MIC (E. coli BAS901/pUC19; Escherichia coli, BAS901/PUC19): 4 µg/mL (≈ 3.91 µM) | MIC (E. coli BAS901/pUCVgb [6]; [14]): increased significantly | MIC (E. coli BAS901/pUCVgb [6]; Escherichia coli, BAS901/PUCVGB): > 256 µg/mL | inhibition of in vitro translation (in vitro translation; 15 min preincubation, 1 hr at 37° C., 5% DMSO, concentration not given): did block | Zone of Inhibition [7]: n.i. | Zone of Inhibition [8]: n.i. | Zone of Inhibition [9]: 2.2 cm | Zone of Inhibition [10]: 2.0 cm | Zone of Inhibition [11]: 2.6 cm | Zone of Inhibition [12]: n.i. | Zone of Inhibition [13]: 2.3 cm | ribosome binding (increase of Hpa fluorescence) (E. coli ribosomes): did support ribosome binding | Zone of Inhibition (B. subtilis 168; B. subtilis 168, disk assay): 2.2 cm | MIC (E. coli BAS901/pUC19ermB; Escherichia coli, BAS901/PUC19ERMB): 16 µg/mL (≈ 15.7 µM)

CC(C)C[C@@H]1NC(=O)[C@H](CCCN)NC(=O)[C@H]([C@@H](C)O)NC(=O)[C@@H](NC(=O)c2ncccc2O)CNC(=O)[C@H](Cc2ccccc2)NC(=O)[C@@H]2CCCN2C(=O)[C@@H](Cc2ccccc2)NC1=O [Compound 5] ({Picolinoyl(3-OH)}-[Dap]T[Orn]L[dF]PF; lactam 1-C)
Zone of Inhibition ([1]; ATCC 14990, 16 h): 0.75 cm | Zone of Inhibition ([2]; ATCC 29212, 16 h): 0.75 cm | Zone of Inhibition ([3]; ATCC 6305, 16 h): 0.8 cm | Zone of Inhibition ([4]; ATCC 12228, 16 h): 0.85 cm | Zone of Inhibition (Haemophilus influenza): n.i. | Zone of Inhibition (E. coli BAS901/pUCVgb [5]): still exhibit zones of inhibition | MIC (E. coli BAS901/pUC19; E. coli BAS901/pUC19 (control), 5% DMSO): 32 µg/mL (≈ 34.5 µM) | MIC (E. coli BAS901/pUCVgb [6]; [14]): 32 µg/mL (≈ 34.5 µM) | inhibition of in vitro translation (in vitro translation; at 250 μg/ml): did not | Zone of Inhibition [7]: n.i. | Zone of Inhibition [8]: n.i. | Zone of Inhibition [9]: n.i. | Zone of Inhibition [10]: n.i. | Zone of Inhibition [11]: n.i. | Zone of Inhibition [12]: n.i. | Zone of Inhibition [13]: n.i. | ribosome binding (increase of Hpa fluorescence) (E. coli ribosomes): did not appear to interact with the ribosome | Zone of Inhibition (B. subtilis 168; 168, 16 h): 0.8 cm | MIC (E. coli BAS901/pUC19ermB; E. coli BAS901/pUC19ermB (Erm methyltransferase)): 32 µg/mL (≈ 34.5 µM)
